The values that follow come from paper PMC5038265 (Antimicrobial Agents and Chemotherapy, 2016).

In one series the target is M. tuberculosis LeuRS (Mycobacterium tuberculosis, UniProt P9WFV1). The series is described as follows: biochemical. Also on record: species or system M. tuberculosis H37Rv.
Series [1] has as its system M. tuberculosis H37Rv. Briefly: MIC for M. tuberculosis H37Rv (resazurin/alamarBlue). In kind it is cell-based, Mycobacterium tuberculosis.
The next series is described as follows: in vivo. As to conditions: mouse, 30 mg/kg. The method, then:
Mouse pharmacokinetic studies were conducted by using female CD-1 mice for compounds 1, 11, and 12, while BALB/c mice were used for compound 13. Mouse body weights were 19 to 28 g, and on the morning of dosing, mice were split randomly into 3 dosing groups to receive the test article by either intravenous (i.v.) tail vein injection or oral (p.o.) gavage. After dosing, blood samples were collected via cardiac puncture at specific time points (n = 3 mice/time point) through 24 h (K2EDTA as an anticoagulant) and processed for plasma. Antibiotic concentrations in the plasma samples were analyzed by liquid chromatography-tandem mass spectrometry (LC-MS/MS). The LC-MS/MS analysis was conducted by using analyte/internal standard peak area methods. The internal standard was AN3365 ([21]), and the instrument used was an API4000 QTRAP instrument (AB Sciex). The limit of quantitation (LOQ) was 1 or 2 ng/ml. Pharmacokinetic analyses of the mean plasma concentration-time profiles were performed by using WinNonlin Pro version 5.2. A compartmental model was used for the data for i.v. dosing, and a noncompartmental model was used for the data for p.o. dosing. […] Compounds 1 and 13 were formulated in saline (0.9% [wt/vol] NaCl) at 7.5 mg/ml, and the pH was adjusted to >5 by the addition of NaOH. Compound 11 was formulated to 6.5 mg/ml in water-dimethylacetamide-ethanol (EtOH) (76:19:5), and the pH was adjusted to >5 by the addition of NaOH. Compound 12 was formulated to 7.5 mg/ml in PEG 300-propylene glycol (PG)-water (55:25:20), and the pH was adjusted to >5 by the addition of NaOH.

The next series relates to COX1 in HepG2 cells. Briefly: Mitochondrial protein synthesis assay, COX1 level. In kind it is cell-based. As to conditions: Homo sapiens, 168 h; HepG2, 7 days; read-out: Mean EC50 ± SD COX1. The method, then:
(§1) The human liver carcinoma-derived HepG2 cell line was obtained from the ATCC (ATCC HB-8065). HepG2 cells were grown in Dulbecco's modified Eagle's medium containing 10% fetal calf serum, 1 mM sodium pyruvate, 0.1 mM essential amino acids, and 50 U/ml penicillin-streptomycin at 37°C with 5% CO2. HepG2 cells were seeded into 96-well plates at 3,000 cells/200 μl/well in cell culture medium. Cells were then grown in the presence of the compounds at 37°C in 10% CO2 for 7 days in at least duplicate concentrations, with the medium and compounds being replaced on the fourth day. After 7 days, the levels of SDHA (subunit A of the succinate dehydrogenase complex) and COX1 (cytochrome c oxidase) were determined by using the MitoSciences In-Cell enzyme-linked immunosorbent assay (ELISA) kit. Janus green staining was used to determined cell viability after 7 days (In-Cell ELISA kit, catalog number MS643).

Another series deals with SDHA in HepG2 cells. Briefly: Mitochondrial protein synthesis assay, SDHA level. The settings on record: Homo sapiens, 168 h; HepG2, 7 days; read-out: Mean EC50 ± SD SDHA. The series is classed as cell-based. The method, then: as §1
In a further series the test system is HepG2 cells. The series is described as follows: HepG2 cell viability (Janus green staining). The settings on record: Homo sapiens, 168 h, HepG2, 7 days, read-out: Mean EC50 ± SD Cell viability. The series is classed as cell-based. The method, then: as §1
The subject of series [2] is M. tuberculosis H37Rv. In kind it is in vivo, C57BL/6J mice. As to conditions: 30 mg/kg QD, 8 weeks, lungs.
In series [3] the test system is M. tuberculosis H37Rv. Also on record: species or system C57BL/6J mice. The settings on record: mouse, in vivo.
For series [4], the system named is M. tuberculosis H37Rv. Briefly: Time-kill assay. The series is classed as cell-based.
The test system of series [5] is M. tuberculosis H37Rv. Briefly: microbe, parasite or virus in culture. In kind it is cell-based. As to conditions: Mycobacterium tuberculosis, read-out: MIC on Middlebrook 7H10 agar.

The structures appear in SMILES notation. Values after ≈ are worked out from the molar mass of the structure shown.

Chain of M. tuberculosis LeuRS (P9WFV1 whole entry): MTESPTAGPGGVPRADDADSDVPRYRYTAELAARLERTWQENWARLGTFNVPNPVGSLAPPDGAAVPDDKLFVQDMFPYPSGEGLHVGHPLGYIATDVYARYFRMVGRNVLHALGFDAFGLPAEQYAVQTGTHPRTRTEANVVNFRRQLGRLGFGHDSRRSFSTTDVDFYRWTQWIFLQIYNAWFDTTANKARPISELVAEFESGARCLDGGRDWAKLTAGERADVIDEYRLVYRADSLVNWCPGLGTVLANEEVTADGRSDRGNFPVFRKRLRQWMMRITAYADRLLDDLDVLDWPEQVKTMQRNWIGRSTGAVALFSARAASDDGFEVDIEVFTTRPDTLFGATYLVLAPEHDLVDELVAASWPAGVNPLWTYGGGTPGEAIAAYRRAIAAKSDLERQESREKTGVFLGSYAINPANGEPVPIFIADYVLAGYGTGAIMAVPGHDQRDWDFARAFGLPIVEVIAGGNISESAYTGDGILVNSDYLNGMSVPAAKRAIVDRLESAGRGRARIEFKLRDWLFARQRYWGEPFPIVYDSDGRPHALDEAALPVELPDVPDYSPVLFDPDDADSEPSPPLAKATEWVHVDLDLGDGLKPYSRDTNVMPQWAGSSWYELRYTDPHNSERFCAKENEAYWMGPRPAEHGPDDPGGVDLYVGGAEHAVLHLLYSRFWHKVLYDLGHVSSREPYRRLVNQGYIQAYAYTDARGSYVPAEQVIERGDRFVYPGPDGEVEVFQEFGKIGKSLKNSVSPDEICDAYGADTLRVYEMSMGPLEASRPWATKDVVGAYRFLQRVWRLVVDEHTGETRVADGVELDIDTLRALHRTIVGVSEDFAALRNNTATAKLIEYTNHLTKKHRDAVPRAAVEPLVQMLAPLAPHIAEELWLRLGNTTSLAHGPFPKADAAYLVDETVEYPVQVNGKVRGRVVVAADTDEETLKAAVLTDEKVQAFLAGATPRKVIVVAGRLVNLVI

Consider `CCOc1ccc(Br)c2c1B(O)O[C@@H]2CN` [Compound 14], for which half-maximal inhibition against M. tuberculosis LeuRS (IC50) was put at 0.08 µM. In addition, the “MIC values used in kill kinetics experiment” value with M. tuberculosis H37Rv [1] (M. tuberculosis H37Rv, Fig. 6) was determined as 0.013 µg/mL (≈ 0.0455 µM). For the same compound, the MIC in the series on M. tuberculosis H37Rv [1] (Mycobacterium tuberculosis, H37RV, read-out: MIC M.tb H37Rv) worked out at 0.02 µg/mL (≈ 0.0699 µM). Further, in the series “in vivo” (i.v.), the “α-t1/2 % AUC” value is 5 % AUC and the “β-t1/2 % AUC” value came out at 95 % AUC. In “in vivo” (in vivo, iv), the total exposure AUC(0-inf) was 43700 ng·h/mL, the peak concentration (Cmax) was 17100 ng/mL, the MRT stood at 4.7 h and the Vd was determined as 3.22 L/kg. In the series “in vivo” (in vivo, iv), this compound had a clearance of 11.4 mL/min/kg. In addition, the half-life in “in vivo” (in vivo, iv, α-t1/2, mouse) was 0.05 h. In “in vivo” (in vivo, iv, β-t1/2, mouse), this compound gave a half-life of 3.4 h. In addition, in the series “in vivo” (in vivo, po), the AUC(0-t) came to 57600 ng·h/mL, the peak level (Cmax) was 6300 ng/mL, the Tmax amounted to 0.5 h and the bioavailability was found to be 100%. The same compound had a half-life in the series “in vivo” (in vivo, po, Terminal t1/2, mouse) of 3.6 h. In addition, in the series with COX1 in HepG2 cells, the EC50 is more than 150 µM. For the same compound, the EC50 in the series with SDHA in HepG2 cells is 21.5 ± 6.4 µM. Moreover, the EC50 with HepG2 cells worked out at 106 ± 37.5 µM. Further, the “reduction in CFU” value in the series on M. tuberculosis H37Rv [2] is 2.4 log10. Further, the “efficacy in murine model of acute TB infection” value in the series on M. tuberculosis H37Rv [3] is “more active at lower doses than linezolid”. Moreover, in the series with M. tuberculosis H37Rv [4], the “in vitro kill kinetics profile” value is on record as “very similar to that of the bacteriostatic protein synthesis inhibitor linezolid”. Moreover, the MIC with M. tuberculosis H37Rv [5] amounted to 0.2 µg/mL (≈ 0.699 µM).
